Laboratory results from the kinase profiling compilation of Christmann-Franck et al. (2016).

Legend:
Assay in all cases: radiometric filter-binding kinase assay
MAPKAPK2 (human) = MAPKAPK2 (human) (UniProt P49137)
BTK (human) = BTK (human) (UniProt Q06187); conditions: compound 1.0 µM
RPS6KA5 KD1 KD2 (human) = RPS6KA5 KD1 KD2 (human) (UniProt O75582)
MAP3K5 (human) = MAP3K5 (human) (UniProt Q99683)
[1] = test system: RPS6KB1 (human), P23443 [T412E]
TBK1 (human) = TBK1 (human) (UniProt Q9UHD2)
MAP3K9 (human) = MAP3K9 (human) (UniProt P80192)
MYLK (human) = MYLK (human) (UniProt Q15746)
Sequence of MYLK (human) (Q15746 whole entry, looked up): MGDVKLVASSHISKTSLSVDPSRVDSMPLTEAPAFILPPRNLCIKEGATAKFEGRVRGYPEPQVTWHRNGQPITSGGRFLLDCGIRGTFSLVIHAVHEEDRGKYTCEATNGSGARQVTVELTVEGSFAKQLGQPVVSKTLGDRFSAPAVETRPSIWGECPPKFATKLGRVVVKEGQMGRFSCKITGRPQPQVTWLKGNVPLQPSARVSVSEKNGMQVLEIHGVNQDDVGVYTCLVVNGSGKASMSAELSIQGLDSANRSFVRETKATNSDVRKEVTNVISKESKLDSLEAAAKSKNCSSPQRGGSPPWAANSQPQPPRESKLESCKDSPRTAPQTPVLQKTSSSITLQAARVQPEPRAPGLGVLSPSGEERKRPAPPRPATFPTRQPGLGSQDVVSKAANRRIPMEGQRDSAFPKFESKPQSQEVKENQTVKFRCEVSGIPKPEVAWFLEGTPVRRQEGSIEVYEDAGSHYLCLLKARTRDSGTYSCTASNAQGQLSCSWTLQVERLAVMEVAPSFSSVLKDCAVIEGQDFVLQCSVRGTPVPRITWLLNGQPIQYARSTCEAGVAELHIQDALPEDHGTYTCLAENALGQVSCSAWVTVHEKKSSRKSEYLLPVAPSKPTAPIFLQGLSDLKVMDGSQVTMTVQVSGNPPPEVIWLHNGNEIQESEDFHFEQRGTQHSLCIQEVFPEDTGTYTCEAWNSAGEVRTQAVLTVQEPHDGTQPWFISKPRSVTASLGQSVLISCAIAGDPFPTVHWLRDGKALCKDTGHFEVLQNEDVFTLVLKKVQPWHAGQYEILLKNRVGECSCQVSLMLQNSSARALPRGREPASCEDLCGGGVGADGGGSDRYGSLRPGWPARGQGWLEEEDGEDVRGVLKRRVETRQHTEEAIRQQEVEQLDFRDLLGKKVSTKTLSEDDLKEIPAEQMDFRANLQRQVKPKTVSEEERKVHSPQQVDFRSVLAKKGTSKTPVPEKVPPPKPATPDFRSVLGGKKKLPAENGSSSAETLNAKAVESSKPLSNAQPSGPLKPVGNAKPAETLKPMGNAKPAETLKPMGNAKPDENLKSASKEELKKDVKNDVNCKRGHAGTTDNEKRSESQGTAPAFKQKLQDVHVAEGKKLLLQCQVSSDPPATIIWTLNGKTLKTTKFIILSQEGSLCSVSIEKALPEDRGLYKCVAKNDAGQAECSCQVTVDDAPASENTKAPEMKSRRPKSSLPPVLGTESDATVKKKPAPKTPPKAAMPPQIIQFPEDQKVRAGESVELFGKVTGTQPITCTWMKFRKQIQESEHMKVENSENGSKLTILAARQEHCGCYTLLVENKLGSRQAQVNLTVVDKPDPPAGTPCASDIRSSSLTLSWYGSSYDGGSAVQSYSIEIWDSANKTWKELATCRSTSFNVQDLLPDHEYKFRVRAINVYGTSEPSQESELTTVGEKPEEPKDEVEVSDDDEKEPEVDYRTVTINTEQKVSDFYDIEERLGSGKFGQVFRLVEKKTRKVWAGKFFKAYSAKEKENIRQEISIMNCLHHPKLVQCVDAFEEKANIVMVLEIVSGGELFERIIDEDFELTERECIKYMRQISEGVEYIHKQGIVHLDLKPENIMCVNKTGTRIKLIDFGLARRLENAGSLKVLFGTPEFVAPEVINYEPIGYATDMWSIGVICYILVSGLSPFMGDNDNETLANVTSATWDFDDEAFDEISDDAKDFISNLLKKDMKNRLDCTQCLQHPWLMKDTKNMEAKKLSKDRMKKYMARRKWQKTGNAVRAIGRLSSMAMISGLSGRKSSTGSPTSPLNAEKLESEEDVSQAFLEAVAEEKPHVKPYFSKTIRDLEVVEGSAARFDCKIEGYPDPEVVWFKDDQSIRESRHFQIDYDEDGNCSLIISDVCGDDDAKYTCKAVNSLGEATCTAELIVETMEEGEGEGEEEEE

MKNK2 (human) = MKNK2 (human) (UniProt Q9HBH9); conditions: compound 0.1 µM
PIM1 (human) = PIM1 (human) (UniProt P11309)
Sequence of PIM1 (human) (P11309 whole entry, looked up): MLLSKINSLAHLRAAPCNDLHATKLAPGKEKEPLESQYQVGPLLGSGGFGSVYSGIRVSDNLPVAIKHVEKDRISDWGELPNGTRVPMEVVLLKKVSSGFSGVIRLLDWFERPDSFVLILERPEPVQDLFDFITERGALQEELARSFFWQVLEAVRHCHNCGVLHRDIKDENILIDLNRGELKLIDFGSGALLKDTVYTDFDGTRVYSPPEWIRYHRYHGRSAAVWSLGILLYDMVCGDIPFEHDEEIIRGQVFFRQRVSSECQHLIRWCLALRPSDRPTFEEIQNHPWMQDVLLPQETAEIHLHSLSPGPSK

EPHA4 (human) = EPHA4 (human) (UniProt P54764)
TTK (human) = TTK (human) (UniProt P33981)
EEF2K (human) = EEF2K (human) (UniProt O00418)
Sequence of EEF2K (human) (O00418 whole entry, looked up): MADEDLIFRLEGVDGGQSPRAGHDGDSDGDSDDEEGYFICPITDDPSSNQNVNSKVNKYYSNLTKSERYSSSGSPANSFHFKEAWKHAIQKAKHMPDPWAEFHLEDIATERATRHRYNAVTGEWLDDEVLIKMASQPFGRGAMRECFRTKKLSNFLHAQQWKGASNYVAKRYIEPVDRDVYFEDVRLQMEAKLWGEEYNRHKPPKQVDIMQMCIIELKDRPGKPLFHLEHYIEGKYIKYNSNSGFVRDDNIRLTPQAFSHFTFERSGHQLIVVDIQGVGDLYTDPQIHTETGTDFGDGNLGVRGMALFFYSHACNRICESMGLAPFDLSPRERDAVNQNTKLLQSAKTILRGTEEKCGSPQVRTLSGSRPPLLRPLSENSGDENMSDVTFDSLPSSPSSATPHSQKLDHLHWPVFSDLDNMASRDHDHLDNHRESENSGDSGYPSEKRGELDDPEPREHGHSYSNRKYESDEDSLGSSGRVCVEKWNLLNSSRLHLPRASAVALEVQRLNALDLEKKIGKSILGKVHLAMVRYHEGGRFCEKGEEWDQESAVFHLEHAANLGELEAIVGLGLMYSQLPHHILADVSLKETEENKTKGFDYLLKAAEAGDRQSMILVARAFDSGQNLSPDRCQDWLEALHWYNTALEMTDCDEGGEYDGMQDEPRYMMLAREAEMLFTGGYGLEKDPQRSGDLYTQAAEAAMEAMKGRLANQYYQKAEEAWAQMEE

PKN2 (human) = PKN2 (human) (UniProt Q16513)
MARK3 (human) = MARK3 (human) (UniProt P27448)
PIM2 (human) = PIM2 (human) (UniProt Q9P1W9)
Sequence of PIM2 (human) (Q9P1W9 whole entry, looked up): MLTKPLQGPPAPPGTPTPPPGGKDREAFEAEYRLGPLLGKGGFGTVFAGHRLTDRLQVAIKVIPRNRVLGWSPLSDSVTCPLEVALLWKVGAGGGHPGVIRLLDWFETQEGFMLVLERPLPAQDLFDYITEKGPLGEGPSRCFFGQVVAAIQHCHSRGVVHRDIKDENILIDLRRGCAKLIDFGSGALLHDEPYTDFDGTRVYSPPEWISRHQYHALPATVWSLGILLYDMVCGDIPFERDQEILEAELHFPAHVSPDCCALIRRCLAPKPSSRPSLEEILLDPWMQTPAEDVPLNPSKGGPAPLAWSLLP

MAP2K1 (human) = MAP2K1 (human) (UniProt Q02750)
NEK6 (human) = NEK6 (human) (UniProt Q9HC98)
PIM3 (human) = PIM3 (human) (UniProt Q86V86)
[2] = test system: PAK2 (human), Q13177 [T402E]
STK3 (human) = STK3 (human) (UniProt Q13188)
GCK (human) = GCK (human) (UniProt Q12851)
EPHB1 (human) = EPHB1 (human) (UniProt P54762)
IKBKB (human) = IKBKB (human) (UniProt O14920)
EPHB4 (human) = EPHB4 (human) (UniProt P54760)
MARK4 (human) = MARK4 (human) (UniProt Q96L34)
PAK6 (human) = PAK6 (human) (UniProt Q9NQU5)
INSRR (human) = INSRR (human) (UniProt P14616)
CSNK2A1 (human) = CSNK2A1 (human) (UniProt P68400)
CDK2 CCNA2 (human) = CDK2 CCNA2 (human) (UniProt P20248+P24941)
CHEK1 (human) = CHEK1 (human) (UniProt O14757)
DAPK1 (human) = DAPK1 (human) (UniProt P53355)
SRPK1 (human) = SRPK1 (human) (UniProt Q96SB4)
MAPK9 (human) = MAPK9 (human) (UniProt P45984)
Sequence of MAPK9 (human) (P45984 whole entry, looked up): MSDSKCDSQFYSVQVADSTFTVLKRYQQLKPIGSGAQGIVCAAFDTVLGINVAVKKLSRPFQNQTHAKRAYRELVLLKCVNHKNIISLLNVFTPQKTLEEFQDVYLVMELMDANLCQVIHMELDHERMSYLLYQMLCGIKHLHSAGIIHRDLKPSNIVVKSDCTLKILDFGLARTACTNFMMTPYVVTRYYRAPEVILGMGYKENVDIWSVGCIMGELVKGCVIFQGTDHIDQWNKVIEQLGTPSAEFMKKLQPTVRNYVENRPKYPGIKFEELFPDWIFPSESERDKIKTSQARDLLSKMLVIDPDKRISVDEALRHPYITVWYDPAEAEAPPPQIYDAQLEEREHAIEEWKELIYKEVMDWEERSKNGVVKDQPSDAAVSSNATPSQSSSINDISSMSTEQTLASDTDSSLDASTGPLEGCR

MAP2K2 (human) = MAP2K2 (human) (UniProt P36507)
YES1 (human) = YES1 (human) (UniProt P07947)
Sequence of YES1 (human) (P07947 whole entry, looked up): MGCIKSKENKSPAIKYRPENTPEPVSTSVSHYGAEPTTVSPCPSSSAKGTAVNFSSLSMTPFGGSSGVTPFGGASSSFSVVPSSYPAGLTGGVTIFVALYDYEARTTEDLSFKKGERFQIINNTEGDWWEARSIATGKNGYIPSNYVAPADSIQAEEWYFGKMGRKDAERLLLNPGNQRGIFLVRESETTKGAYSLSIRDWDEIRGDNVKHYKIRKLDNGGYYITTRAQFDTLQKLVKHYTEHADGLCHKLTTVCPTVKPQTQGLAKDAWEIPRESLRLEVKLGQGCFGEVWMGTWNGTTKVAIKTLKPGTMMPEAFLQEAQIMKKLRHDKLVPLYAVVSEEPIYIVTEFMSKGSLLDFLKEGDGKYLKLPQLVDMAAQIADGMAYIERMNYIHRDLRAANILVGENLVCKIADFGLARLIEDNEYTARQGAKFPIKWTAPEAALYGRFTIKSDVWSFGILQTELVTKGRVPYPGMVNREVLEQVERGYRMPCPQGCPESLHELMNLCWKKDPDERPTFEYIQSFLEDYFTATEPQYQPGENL

Sequence of RPS6KA5 KD1 KD2 (human) (O75582 whole entry, looked up): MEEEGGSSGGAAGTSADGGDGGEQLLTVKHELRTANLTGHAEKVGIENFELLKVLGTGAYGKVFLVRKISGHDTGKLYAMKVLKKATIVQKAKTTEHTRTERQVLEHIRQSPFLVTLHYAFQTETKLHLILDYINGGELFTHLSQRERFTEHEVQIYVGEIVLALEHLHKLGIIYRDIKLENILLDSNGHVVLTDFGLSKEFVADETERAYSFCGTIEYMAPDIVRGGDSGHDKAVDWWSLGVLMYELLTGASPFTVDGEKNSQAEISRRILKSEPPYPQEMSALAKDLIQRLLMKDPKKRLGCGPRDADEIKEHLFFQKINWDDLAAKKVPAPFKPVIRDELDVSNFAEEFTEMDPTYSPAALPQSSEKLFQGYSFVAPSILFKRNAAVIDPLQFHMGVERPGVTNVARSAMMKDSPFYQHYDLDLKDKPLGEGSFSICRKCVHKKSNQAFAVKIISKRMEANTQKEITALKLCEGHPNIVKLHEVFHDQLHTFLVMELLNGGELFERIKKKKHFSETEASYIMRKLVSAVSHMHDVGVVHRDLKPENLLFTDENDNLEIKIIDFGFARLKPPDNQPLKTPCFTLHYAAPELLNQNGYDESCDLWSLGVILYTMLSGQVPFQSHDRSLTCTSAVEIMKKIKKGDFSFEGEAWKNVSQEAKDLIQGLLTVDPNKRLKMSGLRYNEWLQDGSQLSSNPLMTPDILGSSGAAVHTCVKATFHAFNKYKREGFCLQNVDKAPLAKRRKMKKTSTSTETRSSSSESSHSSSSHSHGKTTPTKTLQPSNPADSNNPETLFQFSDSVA

Q: Which results are given for `CN(C)C/C=C/C(=O)Nc1cccc(C(=O)Nc2ccc(Nc3nccc(-c4cccnc4)n3)cc2)c1`?
A: residual activity (MAPKAPK2 (human); compound 0.1 µM): 91%; residual activity (MAPKAPK2 (human); compound 1.0 µM): 106%; residual activity (BTK (human)): 85%; residual activity (RPS6KA5 KD1 KD2 (human); compound 0.1 µM): 88%; residual activity (RPS6KA5 KD1 KD2 (human); compound 1.0 µM): 91%; residual activity (MAP3K5 (human); compound 0.1 µM): 96%; residual activity (MAP3K5 (human); compound 1.0 µM): 100%; residual activity ([1]; compound 0.1 µM): 88%; residual activity ([1]; compound 1.0 µM): 112%; residual activity (TBK1 (human); compound 0.1 µM): 77%; residual activity (TBK1 (human); compound 1.0 µM): 79%; residual activity (MAP3K9 (human); compound 0.1 µM): 72%; residual activity (MAP3K9 (human); compound 1.0 µM): 39%; residual activity (MYLK (human); compound 0.1 µM): 96%; residual activity (MYLK (human); compound 1.0 µM): 85%; residual activity (MKNK2 (human)): 92%; residual activity (PIM1 (human); compound 0.1 µM): 97%; residual activity (PIM1 (human); compound 1.0 µM): 114%; residual activity (EPHA4 (human); compound 0.1 µM): 92%; residual activity (EPHA4 (human); compound 1.0 µM): 105%; residual activity (TTK (human); compound 0.1 µM): 83%; residual activity (TTK (human); compound 1.0 µM): 77%; residual activity (EEF2K (human); compound 0.1 µM): 97%; residual activity (EEF2K (human); compound 1.0 µM): 101%; residual activity (PKN2 (human); compound 0.1 µM): 99%; residual activity (PKN2 (human); compound 1.0 µM): 92%; residual activity (MARK3 (human); compound 0.1 µM): 101%; residual activity (MARK3 (human); compound 1.0 µM): 76%; residual activity (PIM2 (human); compound 0.1 µM): 96%; residual activity (PIM2 (human); compound 1.0 µM): 102%; residual activity (MAP2K1 (human); compound 0.1 µM): 98%; residual activity (MAP2K1 (human); compound 1.0 µM): 113%; residual activity (NEK6 (human); compound 0.1 µM): 88%; residual activity (NEK6 (human); compound 1.0 µM): 96%; residual activity (PIM3 (human); compound 0.1 µM): 97%; residual activity (PIM3 (human); compound 1.0 µM): 84%; residual activity ([2]; compound 0.1 µM): 102%; residual activity ([2]; compound 1.0 µM): 93%; residual activity (STK3 (human); compound 0.1 µM): 83%; residual activity (STK3 (human); compound 1.0 µM): 64%; residual activity (GCK (human); compound 0.1 µM): 45%; residual activity (GCK (human); compound 1.0 µM): 20%; residual activity (EPHB1 (human); compound 0.1 µM): 93%; residual activity (EPHB1 (human); compound 1.0 µM): 86%; residual activity (IKBKB (human); compound 0.1 µM): 76%; residual activity (IKBKB (human); compound 1.0 µM): 63%; residual activity (EPHB4 (human); compound 0.1 µM): 105%; residual activity (EPHB4 (human); compound 1.0 µM): 109%; residual activity (MARK4 (human); compound 0.1 µM): 85%; residual activity (MARK4 (human); compound 1.0 µM): 83%; residual activity (PAK6 (human); compound 0.1 µM): 87%; residual activity (PAK6 (human); compound 1.0 µM): 103%; residual activity (INSRR (human); compound 0.1 µM): 72%; residual activity (INSRR (human); compound 1.0 µM): 64%; residual activity (CSNK2A1 (human); compound 0.1 µM): 80%; residual activity (CSNK2A1 (human); compound 1.0 µM): 81%; residual activity (CDK2 CCNA2 (human); compound 0.1 µM): 85%; residual activity (CDK2 CCNA2 (human); compound 1.0 µM): 72%; residual activity (CHEK1 (human); compound 0.1 µM): 74%; residual activity (CHEK1 (human); compound 1.0 µM): 88%; residual activity (DAPK1 (human); compound 0.1 µM): 90%; residual activity (DAPK1 (human); compound 1.0 µM): 83%; residual activity (SRPK1 (human); compound 0.1 µM): 105%; residual activity (SRPK1 (human); compound 1.0 µM): 104%; residual activity (MAPK9 (human); compound 0.1 µM): 81%; residual activity (MAPK9 (human); compound 1.0 µM): 19%; residual activity (MAP2K2 (human); compound 0.1 µM): 87%; residual activity (MAP2K2 (human); compound 1.0 µM): 102%; residual activity (YES1 (human); compound 0.1 µM): 80%; residual activity (YES1 (human); compound 1.0 µM): 58%
